Patent US4939124A, “Treatment and diagnosis of dementia” (Laboratorios Serono S.A., priority 1988, dated 1990)

Legend:
[1] = system: Male Wistar rats; test: Locomotor activity in open field paradigm (OUCEM-86), i.c.v. injection; assay type: in vivo
From the text: To clarify whether SS and GRF display at the central level the same antagonistic effect that they have at the pituitary level, the effects of these neuropeptides on several behavioral parameters have been studied using the OUCEM-86^TM (Osaka University Computerized Electronic Maze). The system is integrated by the following components: a Programmable Electronic Platform (PEP) (620×620 mm) equipped with 48 photo beam sensors (OPX-T30); a Programming Panel (PP) (Model BECM-0064) for paradigm stimulation; a Shock Generator Scrambler (SGS) (Model BSG-1065) to apply continuous or discontinuous electric current to the PEP; a Control Station (CS) (BEC 16-Bio Computer Control Station BCS-1105; Bio Medica, Ltd., Osaka) which processes inputs/outputs as an interface device to automatically computerize behavioral parameters; and a Computer System (NEC PC-9801 VM2) with 1 megabyte Random Access Memory (RAM) for data processing and experimental setting.
Male Wistar rats (175-200 g) (N =5-8 rats/group) received intracerebroventricular (i.c.v.) injections of GRF1-44 and SS-14 over a range of 0.1 to 10 mcg. Then the rats were studied in the OUCEM under two different paradigms (e.g., open field and maze paradigms).
The animals were placed in the PEP for 30-minute periods and locomotor activity (LA) was automatically recorded in an open field paradigm. Total LA is represented as total inputs (I/O) including movements in four-footed position (4F) and in two-footed position (2F), grooming, rearing and jumping activity, while linear (horizontal) movements (4F) are represented as pulses per minute (pm) or cm^2 /min

[2] = system: growth hormone (GH); test: GRF test: GRF-induced plasma GH response (radioimmunoassay); assay type: in vivo, human; conditions: for GRF-induced GH response: GRF(1-44)NH2 100 mcg i.v. bolus
From the text: The subjects were divided into three groups:
(a) controls (N =9): 5 females and 4 males (age =70.10±2.76 years; range =66-75);
(b) inpatients with early onset senile dementia of the Alzheimer type (EOSDAT) (N =10): 5 females and 5 males (age 65.00±3.31 years; range =57-69); and
(c) inpatients with late onset senile dementia of the Alzheimer type (LOSDAT) (N =10): 5 females and 5 males (age =75.70±3.77 years; range =70-82).
All the SDAT patients met the DSM-III criteria for primary degenerative dementia and rigorous diagnostic criteria for SDAT. […] In LOSDAT, the onset of the disease occurred after the age of 60. The degree of severity of the dementia was assessed with Hasegawa's Dementia Rating Scale (DRS) (Hasegawa K., Inoue K. "An investigation of dementia rating scale for the elderly." Seishinigaku 16:965-969, 1974), Folstein's Mini-Mental State (MMS) Test (Folstein M. F., Folstein S., McHugh P. "Mini-mental state: a practical method for grading the cognitive state of patients for the clinician." J. Psychiat. Res. 12:189-198, 1975) and a modified model of the Brief Cognitive Rating Scale (BCRS) and Functional Assessment Stages (FAST) of Reisberg (Reisberg B., Ferris S. H., De Leon M. J. "Senile dementia of the Alzheimer type: Diagnosis and differential diagnostic features with special reference to functional assessment staging." in: Traber J., Gispen W. H. (Ed). Senile dementia of the Alzheimer type. pp 18-37, Springer-Verlag, Berlin, 1985). Concomitant pathology other than SDAT was discarded under a careful screening of the subjects with CT Scan, EEG, ECG and complementary laboratory data. Current diagnosis or history of SDM-III major affective disorder or schizophrenia as well as history of endocrine disease were criteria for exclusion. All of the control subjects were free of psychiatric and endocrine illness. All subjects included had been drug-free for a minimum of 7 days before testing.
A 21-gauge indwelling venous needle with an attached three-way stopcook was inserted into the antecubital vein. Baseline blood samples for GH determination were collected immediately before testing. GRF(1-44)NH2was then injected as an intravenous bolus (100 mcg), and blood samples were obtained at 15, 30, 45, 60, 90 and 120 minutes after injection for determination of GH concentrations in plasma. The plasma GH levels were measured by radioimmunoassay using a commercial GH-RIA-Kit (Dainabot Co. Ltd. Tokyo). The intra- and inter-assay coefficients of variation were 6.9% and 10.6%, respectively.
The results were analyzed statistically by the Student's test, analysis of variance (ANOVA) and the Mann-Whitney test using a NEC PC-9801VM2 computer.

growth hormone releasing factor [GRF]
locomotor activity (LA), open field ([1]; 1 mcg i.c.v. (SS-14 / GRF1-44), 30-minute period, control 31.16±6.90 pm): 47.60±5.35 pm
locomotor activity (LA), open field ([1]; GRF1-44 1 mcg i.c.v., control 1122±248 cm^2 /min): 1713.6±69.5 cm^2 /min
qualitative behavioral change, open field ([1]; GRF 1 mcg i.c.v.): hyperkinetic syndrome characterized by compulsive, uncontrolled movements
plasma GH ([2]; CONTROL (females), 0 min (basal, before GRF(1-44)NH2 100 mcg i.v.)): 1.03 ± 0.94 ng/mL
plasma GH ([2]; CONTROL (females), 15 min after GRF(1-44)NH2 100 mcg i.v.): 3.09 ± 1.58 ng/mL
plasma GH ([2]; CONTROL (females), 30 min after GRF(1-44)NH2 100 mcg i.v.): 3.68 ± 2.09 ng/mL
plasma GH ([2]; CONTROL (females), 45 min after GRF(1-44)NH2 100 mcg i.v.): 4.28 ± 3.38 ng/mL
plasma GH ([2]; CONTROL (females), 60 min after GRF(1-44)NH2 100 mcg i.v.): 2.97 ± 1.96 ng/mL
plasma GH ([2]; CONTROL (females), 90 min after GRF(1-44)NH2 100 mcg i.v.): 2.04 ± 1.38 ng/mL
plasma GH ([2]; CONTROL (females), 120 min after GRF(1-44)NH2 100 mcg i.v.): 1.10 ± 0.95 ng/mL
plasma GH ([2]; CONTROL (males), 0 min (basal, before GRF(1-44)NH2 100 mcg i.v.)): 1.07 ± 0.92 ng/mL
plasma GH ([2]; CONTROL (males), 15 min after GRF(1-44)NH2 100 mcg i.v.): 2.21 ± 1.87 ng/mL
plasma GH ([2]; CONTROL (males), 30 min after GRF(1-44)NH2 100 mcg i.v.): 3.16 ± 2.76 ng/mL
plasma GH ([2]; CONTROL (males), 45 min after GRF(1-44)NH2 100 mcg i.v.): 5.17 ± 3.46 ng/mL
plasma GH ([2]; CONTROL (males), 60 min after GRF(1-44)NH2 100 mcg i.v.): 3.17 ± 2.61 ng/mL
plasma GH ([2]; CONTROL (males), 90 min after GRF(1-44)NH2 100 mcg i.v.): 1.88 ± 1.87 ng/mL
plasma GH ([2]; CONTROL (males), 120 min after GRF(1-44)NH2 100 mcg i.v.): 0.91 ± 0.87 ng/mL
delay of GH response relative to the small peak in control subjects ([2]; EOSDAT): about 15 minutes
plasma GH ([2]; EOSDAT (females), 0 min (basal, before GRF(1-44)NH2 100 mcg i.v.)): 1.92 ± 1.52 ng/mL
plasma GH ([2]; EOSDAT (females), 15 min after GRF(1-44)NH2 100 mcg i.v.): 2.23 ± 1.90 ng/mL
plasma GH ([2]; EOSDAT (females), 30 min after GRF(1-44)NH2 100 mcg i.v.): 6.26 ± 2.05 ng/mL
plasma GH ([2]; EOSDAT (females), 45 min after GRF(1-44)NH2 100 mcg i.v.): 14.86 ± 3.57 ng/mL
plasma GH ([2]; EOSDAT (females), 60 min after GRF(1-44)NH2 100 mcg i.v.): 19.74 ± 4.86 ng/mL
plasma GH ([2]; EOSDAT (females), 90 min after GRF(1-44)NH2 100 mcg i.v.): 11.28 ± 5.72 ng/mL
plasma GH ([2]; EOSDAT (females), 120 min after GRF(1-44)NH2 100 mcg i.v.): 5.09 ± 3.01 ng/mL
plasma GH ([2]; EOSDAT (males), 0 min (basal, before GRF(1-44)NH2 100 mcg i.v.)): 1.99 ± 1.67 ng/mL
plasma GH ([2]; EOSDAT (males), 15 min after GRF(1-44)NH2 100 mcg i.v.): 2.70 ± 1.92 ng/mL
plasma GH ([2]; EOSDAT (males), 30 min after GRF(1-44)NH2 100 mcg i.v.): 5.49 ± 1.91 ng/mL
plasma GH ([2]; EOSDAT (males), 45 min after GRF(1-44)NH2 100 mcg i.v.): 6.87 ± 2.84 ng/mL
plasma GH ([2]; EOSDAT (males), 60 min after GRF(1-44)NH2 100 mcg i.v.): 11.52 ± 2.82 ng/mL
plasma GH ([2]; EOSDAT (males), 90 min after GRF(1-44)NH2 100 mcg i.v.): 7.41 ng/mL
plasma GH ([2]; EOSDAT (males), 120 min after GRF(1-44)NH2 100 mcg i.v.): 2.73 ± 1.71 ng/mL
rise of plasma GH levels after GRF injection ([2]; EOSDAT females): 19.74 ± 4.86 ng·mL
rise of plasma GH levels after GRF injection ([2]; EOSDAT males): 11.52 ± 2.82 ng/mL
rise of plasma GH levels after GRF injection, individual range ([2]; EOSDAT responders): 5.5 to 28.75 ng/mL
maximum peak of plasma GH ([2]; EOSDAT, 60 minutes after GRF(1-44)NH2 100 mcg i.v. bolus): 15.61 ± 5.71 ng/mL
plasma GH ([2]; LOSDAT (females), 0 min (basal, before GRF(1-44)NH2 100 mcg i.v.)): 1.09 ± 1.01 ng/mL
plasma GH ([2]; LOSDAT (females), 15 min after GRF(1-44)NH2 100 mcg i.v.): 2.04 ± 1.01 ng/mL
plasma GH ([2]; LOSDAT (females), 30 min after GRF(1-44)NH2 100 mcg i.v.): 3.65 ± 2.35 ng/mL
plasma GH ([2]; LOSDAT (females), 45 min after GRF(1-44)NH2 100 mcg i.v.): 4.68 ± 3.18 ng/mL
plasma GH ([2]; LOSDAT (females), 60 min after GRF(1-44)NH2 100 mcg i.v.): 4.97 ± 3.86 ng/mL
plasma GH ([2]; LOSDAT (females), 90 min after GRF(1-44)NH2 100 mcg i.v.): 4.04 ± 3.22 ng/mL
plasma GH ([2]; LOSDAT (females), 120 min after GRF(1-44)NH2 100 mcg i.v.): 2.44 ± 2.05 ng/mL
plasma GH ([2]; LOSDAT (males), 0 min (basal, before GRF(1-44)NH2 100 mcg i.v.)): 0.95 ± 0.98 ng/mL
plasma GH ([2]; LOSDAT (males), 15 min after GRF(1-44)NH2 100 mcg i.v.): 2.13 ± 0.94 ng/mL
plasma GH ([2]; LOSDAT (males), 30 min after GRF(1-44)NH2 100 mcg i.v.): 2.81 ± 1.90 ng/mL
plasma GH ([2]; LOSDAT (males), 45 min after GRF(1-44)NH2 100 mcg i.v.): 3.61 ± 3.51 ng/mL
plasma GH ([2]; LOSDAT (males), 60 min after GRF(1-44)NH2 100 mcg i.v.): 4.09 ± 2.56 ng/mL
plasma GH ([2]; LOSDAT (males), 90 min after GRF(1-44)NH2 100 mcg i.v.): 3.08 ± 2.22 ng/mL
plasma GH ([2]; LOSDAT (males), 120 min after GRF(1-44)NH2 100 mcg i.v.): 1.64 ± 0.82 ng/mL
GRF-induced GH response ([2]; LOSDAT): absent
GRF-induced GH response ([2]; control subjects): absent
